According to patent US9193689B2, “3-aryl-5-substituted-isoquinolin-1-one compounds and their therapeutic use” (INSTITUTE OF CANCER RESEARCH: ROYAL CANCER HOSPITAL (THE), priority 2012, dated 2015):
pIC50: −log10 of the molar value. Like-named read-outs stand apart in the source and are kept apart here.

Assays:
[1] = target: TNKS1 (Homo sapiens, UniProt O95271); experiment: TNKS1/PARP Biochemical Assay (TNKS1)
[2] = tested on: DLD1 cells; experiment: Long-Term Clonogenic Assay (DLD1 cells); type: cell-based
Protocol: Clonogenic Inhibition in DLD1 or HT55 Cells
In order to determine the efficacy of chronic dosing of putative TNKS inhibitors, long term clonogenic or ‘colony formation’ assays were carried out. This included the sparse seeding of cells in a 6-well dish followed by continuous dosing of cells over 12-14 days (depending on relative cell growth). Appropriate cell lines (DLD1 or HT55) were seeded at 500 cells/well in a 6-well dish in DMEM supplemented with FBS. […] Dosages were carried out in triplicate. Cell media containing compound or DMSO only was replenished every 48 hours. Termination of the assay included the fixation of cells with trichlororacetic acid (1 mL, 10% (v/v), Sigma Aldrich, cat. no. T6399) and incubation for 16 hours at 4° C. Fixed cells were then washed with water, allowed to dry and stained with sulforhodamine B solution (sulforhodamine B 0.05% (w/v), Sigma Aldrich cat. no. S1402, acetic acid 1% (v/v), Fisher Scientific, cat. no. A/0400/PB17)) for 12 hours at room temperature. The stain was then removed and the cells washed copiously with aqueous acetic acid (1% v/v) and allowed to dry.
The data was normalised to the DMSO control and was expressed as surviving fraction as a function of inhibitor dose.

[3] = tested on: Wnt activity in DLD1-Wnt-Luc cells; experiment: Wnt-Luciferase Reporter Assay
[4] = read-out: Wnt IC50, DLD1-Wnt-Luc cells

Structure (SMILES)	pIC50 [1]	Clonogenic SF50 (DLD1) [2] [µM]	pIC50 [3, 4]	pIC50 ([3]; read-out: Wnt IC50)
Cc1cccc2c(=O)[nH]c(-c3ccc(CN4CCNCC4C)cc3)cc12 (single isomer, unassigned) [IQ-051-3]	> 7.30	< 2	–	–
Cc1cccc2c(=O)[nH]c(-c3ccc(CN4CCNC(C)C4)cc3)cc12 (single isomer, unassigned) [IQ-084-1]	> 7.30	< 2	–	–
Cc1cccc2c(=O)[nH]c(-c3ccc(CN4CCNC(C)C4)cc3)cc12 (single isomer, unassigned) [IQ-084-2]	> 7.30	< 2	–	–
Cc1cccc2c(=O)[nH]c(-c3ccc(N(C)C)cc3)cc12 [IQ-001]	> 7.70	< 2	–	–
CC(=O)N1CCN(c2ccc(-c3cc4c(C)cccc4c(=O)[nH]3)cn2)CC1 [IQ-005]	> 7.70	< 2	–	–
CN(C)C1CCN(c2ccc(-c3cc4c(Cl)cccc4c(=O)[nH]3)cn2)C1 (stereo not shown) [IQ-009]	> 6.30	< 2	–	–
CC(=O)N1CCN(c2ccc(-c3cc4c(C)cccc4c(=O)[nH]3)cc2)CC1 [IQ-017]	> 7.70	< 2	–	–
O=c1[nH]c(-c2cnc(N3CCNCC3)c(F)c2)cc2c(Cl)cccc12 [IQ-024]	> 6.30	–	> 5.30	–
Cc1cccc2c(=O)[nH]c(-c3cnc(N4CCN(C)CC4)nc3)cc12 [IQ-025, 5-Methyl-3-[2-(4-methyl-piperazin-1-yl)-pyrimidin-5-yl]-2H-isoquinolin-1-one]	7.77	–	–	7.21
CN(C)Cc1ccc(-c2cc3c(Br)cccc3c(=O)[nH]2)cc1 [IQ-033]	> 7.30	–	> 5.30	–
CN1CCN(Cc2ccc(-c3cc4c(C5CC5)cccc4c(=O)[nH]3)cc2)CC1 [IQ-046]	> 6.30	–	> 5.30	–
O=c1[nH]c(-c2ccc(CN3CCNCC3)cc2)cc2c(F)cccc12 [IQ-070]	> 7.30	–	> 5.30	–
Cc1cc(F)cc2c(=O)[nH]c(-c3ccc(CN4CCN(C)CC4)cc3)cc12 [IQ-080]	7.54	–	–	7.38
CCc1cccc2c(=O)[nH]c(-c3ccc(CN4CCNCC4)cc3)cc12 [IQ-081]	> 7.30	–	> 5.30	–
Cc1cccc2c(=O)[nH]c(-c3ccc(C(=O)N(C)CC4CCNCC4)cc3)cc12 [IQ-093, N-Methyl-4-(5-methyl-1-oxo-1,2-dihydro-isoquinolin-3-yl)-N-piperidin-4-ylmethyl-benzamide]	> 7.70	–	> 5.30	–
CN(CC1CCNCC1)C(=O)c1ccc(-c2cc3c(Cl)cccc3c(=O)[nH]2)cc1 [IQ-094]	> 7.30	–	> 5.30	–
CN(C)C1CCN(C(=O)c2ccc(-c3cc4c(Cl)cccc4c(=O)[nH]3)cc2)CC1 [IQ-103]	> 6.30	–	> 5.30	–
O=c1[nH]c(-c2ccc(S(=O)(=O)N3CCNCC3)cc2)cc2c(Cl)cccc12 [IQ-124]	> 7.30	–	> 5.30	–
CN(C)CCOc1ccc(-c2cc3c(Cl)cccc3c(=O)[nH]2)cc1 [IQ-128]	> 6.30	–	> 5.30	–
CN(C)CCOc1ccc(-c2cc3c(Br)cccc3c(=O)[nH]2)cc1 [IQ-132]	> 6.30	–	> 5.30	–
O=c1[nH]c(-c2ccc(OCCN3CCCC3)cc2)cc2c(Cl)cccc12 [IQ-135]	> 6.30	–	> 5.30	–
O=c1[nH]c(-c2ccc(CN3CCNCC3)cc2)cc2c(Br)cccc12 [IQ-150]	> 6.30	–	> 5.30	–
Cc1cccc2c(=O)[nH]c(-c3cnc(N4CCN(C(=O)C5CC5)CC4)nc3)cc12 [IQ-157, 3-[2-(4-Cyclopropanecarbonyl-piperazin-1-yl)-pyrimidin-5-yl]-5-methyl-2H-isoquinolin-1-one]	7.29	–	–	7.39

Structure (SMILES)	pIC50 [1]	Clonogenic SF50 (DLD1) [2] [µM]	pIC50 [3, 4]	pIC50 ([3]; read-out: Wnt IC50)
Cc1cccc2c(=O)[nH]c(-c3ccc(CN4CCC5(CCNC5)C4)nc3)cc12 (stereo not shown) [IQ-160]	> 7.30	–	> 5.30	–
Cc1cccc2c(=O)[nH]c(-c3ccc(C(=O)N4CCOCC4)cc3F)cc12 [IQ-163]	> 6.30	–	> 5.30	–
Cc1cccc2c(=O)[nH]c(-c3ccc(C(=O)N4CCN(C)CC4)cc3F)cc12 [IQ-164]	> 6.30	–	> 5.30	–
Cc1cccc2c(=O)[nH]c(-c3ccc(C(=O)N4CCN(CC5CC5)CC4)cc3F)cc12 [IQ-165]	> 6.30	–	> 5.30	–
Cc1cccc2c(=O)[nH]c(-c3ccc(C(=O)N(CCO)CCO)cc3)cc12 [IQ-191, N,N-Bis-(2-hydroxy-ethyl)-4-(5-methyl-1-oxo-1,2-dihydro-isoquinolin-3-yl)-benzamide]	> 7.70	–	> 5.30	–
Cc1cc(F)cc2c(=O)[nH]c(-c3ccc(C(C)C(=O)N4CC(O)C4)cc3)cc12 (stereo not shown) [IQ-216]	> 7.30	–	> 5.30	–
Cc1cccc2c(=O)[nH]c(-c3ccc(C(C)(C)C(=O)N4CC(O)C4)cc3)cc12 [IQ-217]	> 7.30	–	> 5.30	–
Cc1cccc2c(=O)[nH]c(-c3ccc(C(=O)N4CCN(C)CC4)nc3)cc12 [IQ-220]	7.59	–	–	6.56
Cc1ccc(F)c2c(=O)[nH]c(-c3ccc(C(=O)N4CCN(C)CC4)nc3)cc12 [IQ-221]	> 6.30	–	> 5.30	–
Cc1cc(F)cc2c(=O)[nH]c(-c3ccc(C(=O)N4CCN(C)CC4)nc3)cc12 [IQ-222]	7.80	–	–	6.76
Cc1cccc2c(=O)[nH]c(-c3ccc(C(=O)N4CCN(CC5CC5)CC4)cn3)cc12 [IQ-223, 3-[5-(4-Cyclopropylmethyl-piperazine-1-carbonyl)-pyridin-2-yl]-5-methyl-2H-isoquinolin-1-one]	7.12	–	> 5.30	5.87
Cc1cccc2c(=O)[nH]c(-c3cnc(C(=O)N4CCN(C)CC4)nc3)cc12 [IQ-224]	> 7.30	–	> 5.30	–
Cc1ccc(F)c2c(=O)[nH]c(-c3cnc(C(=O)N4CCN(C)CC4)nc3)cc12 [IQ-225]	> 6.30	–	> 5.30	–
C#Cc1cccc2c(=O)[nH]c(-c3ccc(CN4CCNCC4)cc3)cc12 [IQ-230, 5-Ethynyl-3-(4-piperazin-1-ylmethylphenyl)-2H-isoquinolin-1-one]	> 6.30	–	> 5.30	–
CN(C)CCOc1ccc(-c2cc3c(C#CCO)cccc3c(=O)[nH]2)cc1 [IQ-232]	> 6.30	–	> 5.30	–
CN1CCN(c2ncc(-c3cc4ccccc4c(=O)[nH]3)cn2)CC1 [REF-1, reference compound]	7.48	–	–	6.08
CN1CCN(Cc2ccc(-c3cc4ccc(F)cc4c(=O)[nH]3)cc2)CC1 [REF-2, reference compound]	7.32	–	–	6.00
CN1CCN(c2ccc(-c3cc4ccccc4c(=O)[nH]3)cn2)CC1 [REF-3, reference compound]	7.62	–	–	6.13
CN(C)CCOc1ccc(-c2cc3ccccc3c(=O)[nH]2)cc1 [REF-5, reference compound]	7.77	–	–	< 5.00
O=C(C1CC1)N1CCN(c2ncc(-c3cc4c(O)cccc4c(=O)[nH]3)cn2)CC1 [REF-6, reference compound]	7.62	–	–	6.21
CN1CCN(C(=O)c2ccc(-c3cc4c(O)cccc4c(=O)[nH]3)cn2)CC1 [REF-7, reference compound]	7.38	–	–	< 5.00
COc1ccc(-c2cc3c(C)cccc3c(=O)[nH]2)nc1 [REF-8, reference compound]	7.41	–	–	5.36
